Assay results taken from a melting point compilation (Tetko et al.; mined from patent text by program, amines drawn as free bases though some values may be those of a salt).

| melting point [°C] | Structure (SMILES) |
| --- | --- |
| 221 to 223 | CC(C)=NNc1cc2c(nn1)CCN(C(=O)c1ccc(Cl)cc1)C2 |
| 225 to 226 | Clc1cnn2c(-c3cccnc3)ccnc12 |
| 126 to 128 | COc1ccccc1NS(=O)(=O)c1ccc(C)cc1 |
| 220 | NC1=Nc2ccc(Br)cc2C2CCCC12F (configuration not stated) |
| 190 | COc1c(C#N)c(C#N)c(OC)c2ccccc12 |
| 78 to 81 | O=[N+]([O-])C=C1C2CC3CC(C2)CC1C3 |
| 214 to 216 | N=C(NO)c1cccc2c1nc(-c1c(F)cccc1F)n2Cc1c(F)cccc1F |
| 228 to 230 | O=C(COc1ccc(CCNS(=O)(=O)c2ccc(Cl)cc2)cc1)Nc1nnn[nH]1 |
| 151 to 153 | CCCn1cc(Cc2ccc(C(=O)O)cc2OC)c2cc(C=CCCC(=O)N(C)C)ccc21 |
| 104 to 105 | COc1ccc(-c2ccc(C=O)c3occc23)cc1 |
| 216 | CC(C)(C)C1=NN(c2ccc(C(=O)O)cc2)C(c2cccc(Br)c2)C1 (configuration not stated) |
| 194 to 196 | c1cc(-c2ccn3cnnc3c2)ccn1 |
| 235 to 237 | O=C(NN=C1c2ccc(F)cc2CC1(O)c1ccc(F)cc1)Nc1ccc(Br)cc1 (configuration not stated) |
| 205 to 207 | CCN(C(=O)CN1C(=O)c2ccccc2C1=O)c1ccc(C)c(CO)c1C |
| 98 | CCc1cccc(-c2ccc(S(=O)(=O)N3c4ccccc4CC3C(=O)NCc3ccc(CC(=O)O)cc3)cc2)c1 (configuration not stated) |
| 168 to 169 | CC(C)Sc1ccc(NC(=O)c2cc(Cl)ccc2NS(=O)(=O)c2ccc(Cl)cc2)cc1 |
| 157 to 158 | Cc1ccnc(CSc2nc(C)cc(=O)[nH]2)c1 |
| 201 to 203 | CCOC(=O)c1cc(O)n2c(C)nnc2n1 |
| 97 to 98 | CN(C)CCN1Cc2cccc3cccc(c23)S1(=O)=O |
| 23 | COC(=O)CCCS(=O)(=O)c1ccc(C)cc1 |
| 176 to 178 | COC(=O)c1ccc(C(=O)NS(=O)(=O)c2ccc(CCNC(=O)CC(C)C)cc2)cn1 |
| 160 to 162 | O=C(NCc1ccccc1)C1C=Nc2ccccc2S1 (configuration not stated) |
| 159 to 160 | Clc1ccccc1-c1n[nH]c(-c2ccccc2Cl)n1 |
| 167 to 168 | CCOC(=O)c1cnn2c1nc(OCC)c1cnc3c(cnn3CC)c12 |
| 195 to 197 | Cn1cc(Br)cc(Nc2cc3n(n2)CCOC3)c1=O |

| melting point [°C] | Structure (SMILES) |
| --- | --- |
| 187 to 189 | COC1C(OC(=O)c2ccccc2)C(COC(=O)c2ccccc2)OC1n1cc([N+](=O)[O-])c(=O)[nH]c1=O (configuration not stated) |
| 171 to 174 | NC(=O)c1cc(Cl)c(Sc2ccc(Cl)cc2)c(Cl)c1 |
| 271 to 275 | Fc1cc2c(Nc3ccc(Cl)c(Br)c3)ncnc2cn1 |
| > 250 | O=Cc1c[nH]c2c1ccc1c3cc(-c4ccc(C(F)(F)F)cc4)ccc3[nH]c12 |
| 154 to 156 | Fc1ccc(C(CCCN2CCC(c3n[nH]c4ccccc34)CC2)c2ccc(F)cc2)cc1 |
| 220 to 222 | COCc1c(CO)ncc2[nH]c3cccc(Cc4ccc(Cl)cc4)c3c12 |
| 80 | Nc1nc(-c2cn([C@H](CO)CCc3ccccc3)cn2)n[nH]1 |
| 255 to 257 | Cc1ccc(C(=S)C2CCC3C4CCc5cc(C(=O)O)ccc5C4CCC23C)cc1 (configuration not stated) |
| 273 to 275 | Cc1ccc(NC(=O)NCc2ccc3c(c2)CN(C2CCC(=O)NC2=O)C3=O)cc1C(F)(F)F (configuration not stated) |
| > 340 | N#Cc1ccc2c(c1)nc1n2CCC(=O)N1 |
| 134 to 135 | CCN(CC)C(=O)n1cnc(S(=O)(=O)c2ccccc2OCC(F)(F)F)n1 |
| 78 to 81 | CCCCN(CCCC)CCCOc1ccc(-c2cn3cccc(C)c3n2)c(C)c1 |
| 150 | CSc1nnc(C(N)(c2ccc(Cl)cc2)c2ccc3c(c2)c(-c2cccc(Cl)c2)nc2nnnn23)n1C (configuration not stated) |
| 157 | N#Cc1c(Cl)nc2ccccc2c1Cl |
| 293 to 296 | Brc1ccc2c(Br)c3cc(Br)ccc3c(Br)c2c1 |
| 173 to 174 | O=C(O)CCc1conc1-c1ccc(C(F)(F)F)cc1 |
| 114 | CCCc1nc(SC(F)F)c(C(=O)O)n1Cc1ccc(-c2ccccc2S(=O)(=O)NC(=O)NCCC2=CCCCC2)cc1 |
| 237 to 240 | COc1cc2nc(N3CCN(C(=O)C45CC6CC(CC(C6)C4)C5)CC3)nc(N)c2cc1OC |
| 148 | O=C1CCS(=O)(=O)C1=NO |
| 128 to 132 | COc1ccc(OC)c(-c2cccc3c2OC(CN)C3)c1 (configuration not stated) |
| 170 to 172 | COc1ccc(CCNC(=O)c2ccc3n2Cc2ccccc2N(C(=O)c2ccc(-c4ccccc4C)c(C)c2)C3)cc1 |
| 138 to 139 | O=C(NCCCCOc1ccc(-n2ccnc2)cc1)c1ccc(Cl)cc1 |
| 172 to 174 | COc1ccc(C(=O)Nc2ccccc2)cc1NCc1cccc2ccccc12 |
| 118 to 120 | CCOC(=O)c1c(CN(CC)CC)nc2sc3c(c2c1-c1ccc(OC)c(OC)c1)CCN=C3 |
| 210 to 212 | CN1CC=C(C(=O)N2c3ccccc3NC(=O)c3cscc32)CC1 |

| melting point [°C] | Structure (SMILES) |
| --- | --- |
| 144 to 146 | COc1ccc(S(=O)(=O)C2CC(=O)NC2=O)cc1 (configuration not stated) |
| 260 | OC(Cc1ccc(Cl)cc1Cl)(Cn1cnnc1)c1ccc(-c2ccccc2)cc1 (configuration not stated) |
| 162 to 164 | Nc1ncc(Sc2ccc([N+](=O)[O-])cc2)s1 |
| 102 to 104 | CN(C)CCNC(=O)C(=O)c1ccc(OCCOc2ccc3ccccc3c2)cc1 |
| 195 to 196 | CNc1nc(-c2ccc(F)cc2)c(I)c(C(C)C)n1 |
| 73 to 74.5 | OC1CC=C(c2ccc(F)cc2)CC1 (configuration not stated) |
| 95 to 96 | CN(C)CCOc1ccc(C=NO)cc1 |
| 97 to 97.5 | Fc1ccc(-c2ncn(CCCN3CCOCC3)c2-c2ccnc(Cl)c2)cc1 |
| 176 to 180 | CCOc1ccc2c(c1)C(c1ccccc1Cl)C(=O)N2 (configuration not stated) |
| 107 | COC(=O)C1Oc2ccc(C3CCCCC3)cc2C(C)(c2ccccc2)O1 (configuration not stated) |
| 160 to 162 | CCCn1ncc2c(=O)[nH]c(-c3cc(C(=O)CN4CCOCC4)ccc3OCC)nc21 |
| 224 to 227 | Cc1ccc(Nc2nc(-c3cc(-c4ccccc4)no3)cs2)nc1 |
| 138 to 140 | O=C(Nc1cc(CN2CCCCC2)c(O)c(CN2CCCCC2)c1)c1ccccc1 |
| 198 | CCOC(=O)Nc1c(C(=O)O)oc2cc(OCc3ccccc3)ccc12 |
| 85 to 86 | Fc1cccc(CCc2nnc(-c3ccc4c(c3)CCO4)o2)c1 |
| 101 to 102 | Clc1cc(C(Cl)(Cl)Cl)nc(C(Cl)(Cl)Cl)c1 |
| 135 to 136 | C=CCCCCCCCCCOc1ccc(-c2ccc(O)cc2)cc1 |
| 262 to 264 | Cc1nn(C)c2c1c1oc(=O)c(Br)c(O)c1c(=O)n2Cc1ccc(F)cc1 |
| 149 to 150 | COC(=O)c1ccc2c(c1)Sc1ccccc1NC2 |
| 97 to 104 | C=C(C)c1ccc(C(F)(F)C(F)(F)c2ccccc2)cc1 |
| 234 to 235 | Cc1cncc(C)c1-c1c(C)cc(C=Cc2cc(C(C)(C)C)c(O)c(C(C)(C)C)c2)cc1C |
| 242 | CCCC1OCc2c(O)c(C)nc(Cl)c21 (configuration not stated) |
| 115 to 118 | CS(=O)(=O)c1nc(OCc2ccccc2)cc(C(F)(F)F)n1 |
| 215 to 216 | COc1cc(COc2nn(-c3ccccc3)cc2/C=C2\SC(=O)N(C)C2=O)ccc1OCc1nc(-c2ccco2)oc1C |
| 141 to 142 | COCOCC(=O)c1cnc(NC(=O)C(C)(C)C)cn1 |

| melting point [°C] | Structure (SMILES) |
| --- | --- |
| 130 to 132 | CCCCOCCOc1ccc(-c2ccc(N3CCC4(C3)OCCO4)c(C=C(C)C(=O)O)c2)cc1 |
| 109 to 111 | O=C1N(Cc2c[nH]c3ccccc23)CCCC12CCN(c1cnc3ccccc3n1)CC2 |
| 30 to 35 | COc1ccc2cc([C@H](C)C(=O)SCCCCO[N+](=O)[O-])ccc2c1 |
| 237 to 240 | NC(=O)c1cn(Cc2c(F)cccc2F)nn1 |
| 174 to 180 | c1ccc(-n2c3c(c4ccccc42)CCNCC3)cc1 |
| 119 to 122 | CCc1cc2c(s1)-c1ccccc1C(CC)N2S(=O)(=O)c1ccc(O)cc1 (configuration not stated) |
| 84 to 86 | O=C1CCCc2ncc(Cl)cc21 |
| 178 to 182 | COc1ccc(/C=C(\C)C(=O)O)cc1 |
| 260 to 262 | Cc1cc2c(nc(C)n2-c2ccc(C#N)cc2)c(C)n1 |
| 88 to 90 | COC(=O)[C@H](Cc1c[nH]c2ccccc12)NC(=O)CCC(=O)[C@H](Cc1ccccc1)NC(=O)c1ccccc1 |
| 149 to 150 | CC(=O)NC[C@H]1CN(c2ccc(N3CCC(n4nnnc4Cc4cccs4)CC3)c(F)c2)C(=O)O1 |
| 105 to 106 | CC(C)(C)c1ccc(OCCC(=O)O)c(C(C)(C)C)c1 |
| 162 to 164 | Cn1cc(Oc2cc(Cl)ccc2Cl)c(=O)c(-c2cccc(C(F)(F)F)c2)c1 |
| 137 to 138 | N#Cc1cc(N)ccc1N1CCN(CCO)CC1 |
| 47 to 48 | COC1=C(OC)C(=O)C2=C(CC(CCCCCCCCOC(C)=O)C2)C1=O |
| 260 to 265 | Cn1ccc2cc(-c3cc4nccnc4[nH]3)ccc21 |
| 80 to 82 | O=c1oc(-c2ccc3c(c2)OCCO3)cc(O)c1C(CC1CC1)SC1CCCC1 (configuration not stated) |
| 211 to 213 | NC(=O)c1sc2nccc(N3CCCN(c4ccc(OCc5ccccc5)cc4)CC3)c2c1N |
| 179 to 180 | Cc1cc([N+](=O)[O-])nc(C)c1C(N)=O |
| 154 to 156 | O=NN1CCN(c2ccc(Cl)cc2)C1=O |
| 114 to 116 | O=[N+]([O-])c1ccccc1Nc1nc(-c2ccccc2)cs1 |
| 173 to 174 | c1ccc(-c2nsc3nc4ccccc4n23)nc1 |

| Structure (SMILES) | melting point [°C] |
| --- | --- |
| Fc1nc(F)c(F)c(N2CCCNCC2)c1F | 58 to 61 |
| CC(Cc1ccc(OCC(N)=O)cc1)NCC(OCCO)c1ccc(O)cc1 (configuration not stated) | 145 to 160 |
| CCOc1ccc(-c2nc(C3=CCN(C)CC3)cs2)cc1OCC | 81.2 to 83.6 |
| CC1(C)OC[C@H]([C@@H]2CNC(=O)C2)O1 | 84 to 86 |
| CCCCc1c(C(=O)c2ccc(O)cc2)c2cc([N+](=O)[O-])ccc2n1C | 198 |
